Reference: patent US12569536B2, “Macrocyclic peptides for targeted inhibition of autophagy” (Board of Regents, The University of Texas System, priority 2019, dated 2026)
Entries after “also recorded” stand apart in the source; their conditions may differ. Where two headings read alike, the source gives them in different places. Numbered stars: 1 amine (or outer) side, 2 acyl side, 3 side chain; on linkers, the order of the positions; unused ones are H or OH. Bridge positions count the residues as written; N and C are the ends. Square brackets hold non-standard residues; d marks the D form. Primed or numbered codes have the meaning given here. Ends that are not written are not given here. Peptide text beside a SMILES is read from it. DSG″ = disuccinimidyl glutarate, a bis-NHS cross-linker that leaves a glutaryl bridge between two amines; Glutaryl = O=C(CCCC(=O)[*:2])[*:1]; NMeA = CN[C@@H](C)C(=O)O

How the values were obtained:
GABARAP2 = GABARAP2 (Homo sapiens, UniProt P60520); assay type: binding; conditions: peptide immobilized on solid phase
Chain of GABARAP2 (P60520 1-116 limits assumed): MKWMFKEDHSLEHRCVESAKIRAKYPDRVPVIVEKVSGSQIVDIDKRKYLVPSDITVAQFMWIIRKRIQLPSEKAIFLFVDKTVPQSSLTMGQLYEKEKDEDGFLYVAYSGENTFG

Hey cell line [1] = experiment: Western blots of LC3-I/LC3-II and p62, cisplatin-resistant ovarian cancer cells; assay type: cell-based; conditions: 48 hr
Description: (§1) FIGS. 12A-D: SUPR4B1W sensitizes ovarian cancer cells to cisplatin.

OVCAR8 cell line [2] = experiment: as above; assay type: cell-based; conditions: 48 hr
Description: as §1

GABARAP1 = assay type: binding; conditions: peptide immobilized on solid phase
LC3A = biological target: T1, LC3A (Homo sapiens, UniProt Q9H492); assay type: binding; conditions: peptide immobilized on solid phase
T1 construct: made in house

LC3C = biological target: T2, LC3C (Homo sapiens, UniProt Q9BXW4); assay type: binding; conditions: peptide immobilized on solid phase
T2 construct: made in house
T2 sequence (Q9BXW4 1-126 limits assumed): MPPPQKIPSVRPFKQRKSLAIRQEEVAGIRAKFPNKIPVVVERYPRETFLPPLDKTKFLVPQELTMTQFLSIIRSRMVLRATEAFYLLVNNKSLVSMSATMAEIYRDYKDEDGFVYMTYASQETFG

ubiquitin = biological target: T3, ubiquitin (Homo sapiens, UniProt P62987); assay type: binding; conditions: peptide immobilized on solid phase
T3 construct: made in house

SKOv3 cells = experiment: MTT viability assay in DIRAS3 autophagy model; conditions: 50 μM peptide; for cell viability (MTT), DIRAS3-induced (autophagic) cells: SKOv3, Dox-induced, 72 hours
Procedure: (§2) FIGS. 6A-D: SUPR4B in the DIRAS3 autophagy model. FIGS. 6A&B—MTT viability assays with 50 M linear and cyclic SUPR 4B on non-DIRAS3 induced OVCAR8 (FIG. 6B) and SKOv3 (FIG. 6A) cells. […] Induction was performed using 1 g/mL DOX.
(§3) FIGS. 8A-F: SUPR4B in the DIRAS3 autophagy model. […] Inhibition of autophagy by the present compound were hypothesized to restore cellular growth. […] FIGS. 8A&B—MTT viability assays with 50 M linear and cyclic SUPR on non-DIRAS3 induced OVCAR8 (FIG. 8A) and SKOv3 (FIG. 8B) cells. […] FIGS. 8C&D—MTT viability assays on the effect of 50 M linear and cyclic LC3 SUPR4B on DIRAS3-induced OVCAR8 (FIG. 8C) and SKOv3 (FIG. 8D) cells. Induction was performed using 1 g/mL DOX.
(§4) After selection, the library was sequenced and lead compounds were subjected to thermodynamic and cellular assays to develop a structure-activity relationship modeling the interaction between the SUPR peptide and the target.

Atg8 = Atg8 (Saccharomyces cerevisiae, UniProt P38182); assay type: binding, yeast; conditions: peptide immobilized on solid phase
Chain of Atg8 (P38182 1-116): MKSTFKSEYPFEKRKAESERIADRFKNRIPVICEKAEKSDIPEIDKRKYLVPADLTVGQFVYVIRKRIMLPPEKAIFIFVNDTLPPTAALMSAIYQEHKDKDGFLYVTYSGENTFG

LC3 = LC3 (Homo sapiens, UniProt Q9H492); experiment: Surface plasmon resonance binding to LC3
OVCAR8 cells = conditions: 50 μM peptide; for cell viability (MTT), DIRAS3-induced (autophagic) cells: OVCAR8, Dox-induced, 72 hours
Procedure: as §2, §3, §4

Hey cell line [3] = experiment: MTT viability assay, cisplatin-resistant ovarian cancer cells; assay type: cell-based; conditions: cisplatin 10 μM + peptide, 48 hr
Description: as §1

OVCAR8 cell line [4] = experiment: as above; assay type: cell-based; conditions: OVCAR8, cisplatin 10 μM + peptide, 48 hr
Description: as §1

LC3B = LC3B (Homo sapiens, UniProt Q9GZQ8); assay type: binding; conditions: peptide immobilized on solid phase
SKOv3-ARHI cells = experiment: Western blotting of p62 and LC3I/LC3II in DIRAS3-induced cells; assay type: cell-based; conditions: peptide-treated, 72 h
Procedure: FIGS. 7A-B: SUPR4B in the DIRAS3 autophagy model.
FIGS. 8A-F: SUPR4B in the DIRAS3 autophagy model. […] Induction was performed using 1 g/mL DOX.

[5] = tested on: OVCAR8 orthotopic ovarian tumors; experiment: Orthotopic ovarian tumor model with carboplatin; assay type: in vivo
Procedure: FIG. 13: SUPR4B1W sensitizes orthotopic ovarian tumors to carboplatin treatment. Mice were injected IP with 2 million OVCAR8 cells and treated three times per week for four weeks with vehicle control, SUPR peptide (10 mg/kg), carboplatin (25 mg/kg), or combination of SUPR peptide and carboplatin. At the end of four weeks, mice were sacrificed and tumors were dissected. […] For each vertical groups of data points, the top group represents Mouse Weight and the bottom group represents Tumor Weight.
In animal model experiments, mice were implanted with a cisplatin-resistant ovarian cancer cell line (OVCAR8) and treated with carboplatin, SUPR4B1W peptide, or carboplatin+SUPR4B1W peptide for 4 weeks. At the conclusion of the study, the mice were sacrificed and the mass of the intraperitoneal tumors measured.

[6] = tested on: Atg4B:LC3-AMC interaction; experiment: Atg4B cleavage of LC3-AMC (fluorescence); assay type: biochemical; conditions: LC3-AMC 120 nM, Atg4B 220 pM, increasing peptide concentrations
Description: FIG. 9A—In naturally occurring LIMs, the most common amino acid in the leading position of the motif is tryptophan. […] The reason for this may be that there exists only one codon for tryptophan, making it much less likely to appear in a selected peptide than another W-site recognizing amino acid. Modifying the lead position of SUPR 4B (SEQ ID NO: 1) from phenylalanine to tryptophan was hypothesized to produce a peptide that obtains improved binding affinity towards LC3 by more closely mimicking a naturally occurring LIM. Tryptophan may also confer increased hydrophobicity, which may enhance cell uptake. […] Atg19 is provided in SEQ ID NO: 10, Atg32 is provided in SEQ ID NO: 11, Atg3 is provided in SEQ ID NO: 12, Atg4B is provided in SEQ ID NO: 13, p62 is provided in SEQ ID NO: 14, NBR1 is provided in SEQ ID NO: 15. […] FIG. 9D—LC3-AMC (120 nM) was incubated with Atg4B (220 pM) in the presence of SUPR4B1W or a non-functional scrambled variant at the concentrations shown. Cleavage of LC3-AMC was measured by increased fluorescence (λEx=380 nm, […]).
Cleavage of LC3-AMC was measured by increased fluorescence.

[7] = tested on: HeLa cells stably transfected with a GFP-LC3 fusion; assay type: cell-based; conditions: HeLa starved in Hank's Balanced Salt Solution
Description: FIG. 11: Confocal microscopy of SUPR 4B1W-Rox in autophagic HeLa cells. A line of HeLa cells was stably transfected with a GFP-LC3 fusion. When starved for 2+ hours in Hank's Balanced Salt Solution, these cells become autophagic and GFP signal becomes punctate as GFP-LC3 fusions are embedded in the autophagosome.

## CSCC[C@@H]1NC(=O)CCCC(=O)NCCCC[C@@H](C(=O)O)NC(=O)[C@H](C)N(C)C(=O)[C@H](C)NC(=O)[C@H]([C@@H](C)O)NC(=O)[C@H](C(C)C)NC(=O)[C@H](CCCNC(=N)N)NC(=O)[C@H](Cc2c[nH]cn2)NC(=O)[C@@H]2CCCN2C(=O)[C@H](Cc2c[nH]c3ccccc23)NC1=O [SUPR 4B1W] (MWPHRVTA[NMeA]K-OH; linker N-10 via Glutaryl)
GABARAP2
  binding to GABARAP2: moderate off-target binding
Hey cell line [1]; cisplatin 10 μM + peptide 50 µM
  p62 accumulation in combination with cisplatin: triggered accumulation of p62
Hey cell line [1]; cisplatin 10 μM + peptide
  LC3-I/LC3-II ratios in combination with cisplatin: dramatically perturbed LC3-I/LC3-II ratios
OVCAR8 cell line [2]; OVCAR8, cisplatin 10 μM + peptide 50 µM
  p62 accumulation in combination with cisplatin: triggered accumulation of p62
OVCAR8 cell line [2]; OVCAR8, cisplatin 10 μM + peptide
  LC3-I/LC3-II ratios in combination with cisplatin: dramatically perturbed LC3-I/LC3-II ratios
GABARAP1
  binding to GABARAP1: moderate off-target binding
LC3A
  binding to LC3A: bound tightly
LC3C
  binding to LC3C: Almost no binding
ubiquitin
  binding to ubiquitin: Almost no binding
SKOv3 cells
  cell viability (MTT), DIRAS3-induced (autophagic) cells: enhanced viability rescue phenotype
SKOv3 cells; listed as SUPR4B1W
  cell viability (MTT), DIRAS3-induced (autophagic) cells: almost completely restores cell viability
SKOv3 cells; SKOv3, no Dox (non-autophagic), up to 72 hours
  cell viability (MTT), non-DIRAS3 induced cells: no change in cell viability
Atg8
  binding to yeast LC3 ortholog Atg8: moderate off-target binding
LC3
  improvement of apparent dissociation constant relative to SUPR4B: ~10 fold
OVCAR8 cells
  cell viability (MTT), DIRAS3-induced (autophagic) cells: enhanced viability rescue phenotype
OVCAR8 cells; listed as SUPR4B1W
  cell viability (MTT), DIRAS3-induced (autophagic) cells: almost completely restores cell viability
OVCAR8 cells; OVCAR8, no Dox (non-autophagic), up to 72 hours
  cell viability (MTT), non-DIRAS3 induced cells: no change in cell viability
Hey cell line [3]
  cell viability (MTT) in combination with cisplatin: re-sensitized the resistant cell lines to cisplatin
OVCAR8 cell line [4]
  cell viability (MTT) in combination with cisplatin: re-sensitized the resistant cell lines to cisplatin
LC3B
  binding to LC3B: bound tightly
SKOv3-ARHI cells
  LC3I/LC3II ratio: decreased LC3I/LC3II ratio
  p62 protein levels: accumulation of p62
[5]; IP OVCAR8, four weeks, peptide 10 mg/kg + carboplatin 25 mg/kg
  number of mice with no detectable tumors, peptide combined with carboplatin: 6 mice
[5]; mice, IP OVCAR8, three times per week for four weeks, SUPR peptide 10 mg/kg or carboplatin 25 mg/kg
  final tumor mass, agent administered alone: no change in tumor volume
[5]; mice, IP OVCAR8, three times per week for four weeks, peptide 10 mg/kg + carboplatin 25 mg/kg
  final tumor mass, peptide combined with carboplatin: almost completely tumor-free; also recorded: significantly reduced tumor mass
[6]
  Cleavage of LC3-AMC by Atg4B (fluorescent signal): significantly decreased fluorescent signal

## SUPR 4B1W-ROX: SUPR 4B1W conjugated to the fluorophore ROX (MWPHRVTA[NMeA]K; bridge N-10 via DSG″; also: conjugated to fluorophore ROX, site not given here)
[7]
  co-localization with GFP-LC3: Significant co-localization of ROX and GFP signal
